Test results as given in patent publication US6844313B1, “Composition containing a meiosis activating substance” (Novo Nordisk A/S, priority 1999, dated 2005).
≈ marks a conversion by molar mass, not a printed value. Read-outs that look alike come from different tables or passages of the source.

Tests used:
[1] = Solubility and appearance of FF-MAS in water/ethanol containing HSA before evaporation; type: physicochemical; conditions: Example 3; ethanol/water mixture containing HSA
Procedure: Prepare a saturated ethanolic solution of FF-MAS. Blend with an aqueous solution of the additive in the ration 1:2,5. By visual inspection control that surplus FF-MAS is available in the solution. Rotate the solution for 24 hours at room temperature. Filter the solution through 0,22 […] filter, determine the content of FF-MAS by HPLC and calculate the solubility. Transfer 350μl to 4-well dish and evaporate to dryness at room temperature. Add 500μl MEM AL- PHA medium (Gibcobal). If a clear solution is obtained within half an hour, the composition is tested on oocytes obtained from immature female mice. % GVB obtained is at least 50%, preferable 80%, vide example 1.
In this example, 3 products were prepared. Referring to the table below, the stock solution of FF-MAS used for product 1, 2, and 3 contained 50, 500 and 3330 μg/ml, respectively. For each of the products, the stock solution of HSA contained 20% HSA. The amount of said stock solutions used is stated in the table. For example, for product 1, 400 μl of the FF-MAS stock solution was mixed with 1000 μl of the HSA stock solution. After mixing of these stock solutions, the solutions were clear, and no precipitation was observed therein. After mixing, the amount thereof stated in the table was transferred to 4-well multi-dishes (Nuclon, Denmark). […]

[2] = Solubility of FF-MAS in water, ethanol and ethanol/water; type: physicochemical
Procedure: The solubility of a preferred MAS, i.e., FF-MAS, in water is very low, i.e., approximately 20 picogram/ml (corresponding to 2×10^−5 μg/ml), and in ethanol the solubility is substantially higher, i.e., approximately 4 mg/ml. According to our preliminary investigations, the highest solubility of FF-MAS in a mixture of ethanol and water (1:2.5) is approximately 0.4 mg/ml.

CC(C)=CCC[C@@H](C)[C@H]1CC=C2C3=C(CC[C@@]21C)[C@@]1(C)CC[C@H](O)C(C)(C)[C@@H]1CC3 [FF-MAS, 4,4-dimethyl-5 α-cholesta-8,14,24-triene-3β-ol]
highest concentration of FF-MAS dissolved [1]: 0.95 mg/mL
solubility ([2]; ethanol, organic solvent or mixture, read-out: solubility in ethanol): ~4000 µg/mL (≈ 9.74 mM)
solubility ([2]; ethanol/water (1:2.5), aqueous with cosolvent or surfactant or cyclodextrin, ethanol and water (1:2.5), no additive, preliminary investigations, read-out: highest solubility in a mixture of ethanol and water (1:2.5)): ~400 µg/mL (≈ 0.974 mM)
solubility in water ([2]; water): approximately 20 picogram/ml
